# Test results: patent US9980943B2, “Methods of treating muscular dystrophy” (BOARD OF REGENTS OF THE NEVADA SYSTEM OF HIGHER EDUCATION, …, priority 2013, dated 2018)
# Assays:
# Format in all cases: cell-based, mouse
# [1] = test system: β-galactosidase in CMV-LacZ C2C12 myoblasts; assay: CMV-LacZ secondary screen in C2C12 myoblasts (β-Gal stabilizing assay); details: for CMV-LACZ in Myoblasts (β-galactosidase activity relative to DMSO): CMV-LacZ C2C12 myoblasts; for CMV-LACZ in Myoblasts, value relative to DMSO: SU9516 analogs, C2C12 CMV-LacZ, N=2
# Method in brief: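 First, C2C12 myoblasts were transfected with a linearized CMV-LACZ vector and clonal lines selected by FDG β-gal assay. Then cells were exposed to compounds at 0.5, 1, 5, 10, 20 and 40 μM in 96-well format, two replicates each, and β-gal measured.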
# [2] = test system: α7 integrin (LacZ reporter in α7βgal+/− myoblasts); assay: Myoblast α7+/LacZ integrin FDG assay (Burkin assay in myoblasts, 96-well); details: for Burkin Assay in Myoblasts, signal relative to DMSO: α7+/LacZ myoblasts; for Burkin Assay in Myoblasts, signal relative to DMSO / Burkin Assay in Myoblasts, value relative to DMSO: 96-well; for Burkin Assay in Myoblasts, value relative to DMSO: SU9516 analogs, N=3-6
# [3] = test system: β-galactosidase in CMV-LacZ C2C12 myotubes; assay: CMV-LacZ secondary screen in C2C12 myotubes (β-Gal stabilizing assay); details: for CMV-LACZ in Myotubes, signal relative to DMSO: C2C12 CMV-LacZ myotubes, fold relative to DMSO; for CMV-LACZ in Myotubes, value relative to DMSO: SU9516 analogs, C2C12 CMV-LacZ, N=2
# Method in brief: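 β-gal stabilization was measured in C2C12 myoblasts or myotubes stably transfected with a CMV-driven LacZ construct, using the FDG β-gal assay. Compounds were tested in dose-response at 0.5, 1, 5, 10, 20 and 40 μM, with two replicates per point.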
# [4] = test system: α7 integrin (LacZ reporter in α7+/LacZ myotubes); assay: Myotube α7 integrin FDG assay (Burkin assay in myotubes, 96-well); details: for Burkin Assay in Myotubes, value relative to DMSO: SU9516 analogs, 96-well, N=3-6
# [5] = Mus musculus, Myoblast, 48 h, read-out: Burkin Assay in Myoblasts, value relative to DMSO
smiles,measurement,setting,value
Cc1cccc(Sc2nc(-c3ccccc3)ccc2C#N)c1 [MLS000325736-01],CMV-LACZ in Myoblasts (β-galactosidase activity relative to DMSO),[1]; 0.5 uM,0.7862
same,CMV-LACZ in Myoblasts (β-galactosidase activity relative to DMSO),[1]; 1 uM,0.9135
same,CMV-LACZ in Myoblasts (β-galactosidase activity relative to DMSO),[1]; 5 uM,0.9758
same,CMV-LACZ in Myoblasts (β-galactosidase activity relative to DMSO),[1]; 10 uM,1.0696
same,CMV-LACZ in Myoblasts (β-galactosidase activity relative to DMSO),[1]; 20 uM,1.0111
same,CMV-LACZ in Myoblasts (β-galactosidase activity relative to DMSO),[1]; 40 uM,1.0537
same,"Burkin Assay in Myoblasts, signal relative to DMSO",[2]; 0.5 uM,0.7757
same,"Burkin Assay in Myoblasts, signal relative to DMSO",[2]; 1 uM,0.7875
same,"Burkin Assay in Myoblasts, signal relative to DMSO",[2]; 5 uM,1.423
same,"Burkin Assay in Myoblasts, signal relative to DMSO",[2]; 10 uM,1.17
same,"Burkin Assay in Myoblasts, signal relative to DMSO",[2]; 20 uM,0.912
same,"Burkin Assay in Myoblasts, signal relative to DMSO",[2]; 40 uM,0.8854
same,"CMV-LACZ in Myotubes, signal relative to DMSO",[3]; 0.5 uM,0.9263
same,"CMV-LACZ in Myotubes, signal relative to DMSO",[3]; 1 uM,0.8968
same,"CMV-LACZ in Myotubes, signal relative to DMSO",[3]; 5 uM,0.9630
same,"CMV-LACZ in Myotubes, signal relative to DMSO",[3]; 10 uM,0.9324
same,"CMV-LACZ in Myotubes, signal relative to DMSO",[3]; 20 uM,0.8244
same,"CMV-LACZ in Myotubes, signal relative to DMSO",[3]; 40 uM,0.9889
same,"Burkin Assay in Myotubes, α7 integrin LacZ reporter signal relative to DMSO",[4]; 0.5 uM,0.9135
same,"Burkin Assay in Myotubes, α7 integrin LacZ reporter signal relative to DMSO",[4]; 1 uM,0.8017
same,"Burkin Assay in Myotubes, α7 integrin LacZ reporter signal relative to DMSO",[4]; 5 uM,1.027
same,"Burkin Assay in Myotubes, α7 integrin LacZ reporter signal relative to DMSO",[4]; 10 uM,1.168
same,"Burkin Assay in Myotubes, α7 integrin LacZ reporter signal relative to DMSO",[4]; 20 uM,0.6582
same,"Burkin Assay in Myotubes, α7 integrin LacZ reporter signal relative to DMSO",[4]; 40 uM,0.6972
O=C1Nc2ccccc2/C1=C/c1c[nH]cn1 [MLS000327715-01],"CMV-LACZ in Myoblasts, value relative to DMSO",[1]; 0.5 uM,1.2294
same,"CMV-LACZ in Myoblasts, value relative to DMSO",[1]; 1 uM,1.1731
same,"CMV-LACZ in Myoblasts, value relative to DMSO",[1]; 5 uM,0.9664
same,"CMV-LACZ in Myoblasts, value relative to DMSO",[1]; 10 uM,1.0060
same,"CMV-LACZ in Myoblasts, value relative to DMSO",[1]; 20 uM,1.3181
same,"CMV-LACZ in Myoblasts, value relative to DMSO",[1]; 40 uM,1.0648
same,fold induction at 0.5 µM,[2]; [5],1.38
same,fold induction at 1 µM,[2]; [5],1.09
same,fold induction at 5 µM,[2]; [5],1.15
same,fold induction at 10 µM,[2]; [5],1.03
same,fold induction at 20 µM,[2]; [5],0.902
same,fold induction at 40 µM,[2]; [5],0.578
same,"CMV-LACZ in Myotubes, value relative to DMSO",[3]; 0.5 uM,1.1762
same,"CMV-LACZ in Myotubes, value relative to DMSO",[3]; 1 uM,1.0562
same,"CMV-LACZ in Myotubes, value relative to DMSO",[3]; 5 uM,1.1289
same,"CMV-LACZ in Myotubes, value relative to DMSO",[3]; 10 uM,0.9983
same,"CMV-LACZ in Myotubes, value relative to DMSO",[3]; 20 uM,1.2200
same,"CMV-LACZ in Myotubes, value relative to DMSO",[3]; 40 uM,1.4871
same,"Burkin Assay in Myotubes, value relative to DMSO",[4]; 0.5 uM,0.8838
same,"Burkin Assay in Myotubes, value relative to DMSO",[4]; 1 uM,1.025
same,"Burkin Assay in Myotubes, value relative to DMSO",[4]; 5 uM,1.302
same,"Burkin Assay in Myotubes, value relative to DMSO",[4]; 10 uM,1.115
same,"Burkin Assay in Myotubes, value relative to DMSO",[4]; 20 uM,1.192
same,"Burkin Assay in Myotubes, value relative to DMSO",[4]; 40 uM,1.119
Cc1ccc(/C=C2\C(=O)Nc3ccccc32)o1 [MLS000391588-01],"CMV-LACZ in Myoblasts, value relative to DMSO",[1]; 0.5 uM,1.0009
same,"CMV-LACZ in Myoblasts, value relative to DMSO",[1]; 1 uM,0.7411
same,"CMV-LACZ in Myoblasts, value relative to DMSO",[1]; 5 uM,0.9885
same,"CMV-LACZ in Myoblasts, value relative to DMSO",[1]; 10 uM,1.0968
same,"CMV-LACZ in Myoblasts, value relative to DMSO",[1]; 20 uM,1.4307
same,"CMV-LACZ in Myoblasts, value relative to DMSO",[1]; 40 uM,1.1119
same,"Burkin Assay in Myoblasts, value relative to DMSO",[2]; 0.5 uM,1.07
same,"Burkin Assay in Myoblasts, value relative to DMSO",[2]; 1 uM,1.015
same,"Burkin Assay in Myoblasts, value relative to DMSO",[2]; 5 uM,0.9119
same,"Burkin Assay in Myoblasts, value relative to DMSO",[2]; 10 uM,0.8176
same,"Burkin Assay in Myoblasts, value relative to DMSO",[2]; 20 uM,0.7804
same,"Burkin Assay in Myoblasts, value relative to DMSO",[2]; 40 uM,0.3005
same,"CMV-LACZ in Myotubes, value relative to DMSO",[3]; 0.5 uM,0.8400
same,"CMV-LACZ in Myotubes, value relative to DMSO",[3]; 1 uM,1.0010
same,"CMV-LACZ in Myotubes, value relative to DMSO",[3]; 5 uM,1.0019
same,"CMV-LACZ in Myotubes, value relative to DMSO",[3]; 10 uM,0.9740
same,"CMV-LACZ in Myotubes, value relative to DMSO",[3]; 20 uM,0.9212
same,"CMV-LACZ in Myotubes, value relative to DMSO",[3]; 40 uM,0.9094
same,"Burkin Assay in Myotubes, value relative to DMSO",[4]; 0.5 uM,1.073
same,"Burkin Assay in Myotubes, value relative to DMSO",[4]; 1 uM,0.9563
same,"Burkin Assay in Myotubes, value relative to DMSO",[4]; 5 uM,0.8994
same,"Burkin Assay in Myotubes, value relative to DMSO",[4]; 10 uM,0.9356
same,"Burkin Assay in Myotubes, value relative to DMSO",[4]; 20 uM,0.7631
same,"Burkin Assay in Myotubes, value relative to DMSO",[4]; 40 uM,0.664
CC(C)(C)c1ccc(C(=O)OCC(=O)Nc2sc3c(c2C#N)CCC3)cc1 [MLS000392555-01],CMV-LACZ in Myoblasts (β-galactosidase activity relative to DMSO),[1]; 0.5 uM,0.8954
same,CMV-LACZ in Myoblasts (β-galactosidase activity relative to DMSO),[1]; 1 uM,0.7638
same,CMV-LACZ in Myoblasts (β-galactosidase activity relative to DMSO),[1]; 5 uM,0.9342
same,CMV-LACZ in Myoblasts (β-galactosidase activity relative to DMSO),[1]; 10 uM,0.9799
same,CMV-LACZ in Myoblasts (β-galactosidase activity relative to DMSO),[1]; 20 uM,0.9559
same,CMV-LACZ in Myoblasts (β-galactosidase activity relative to DMSO),[1]; 40 uM,1.2007
same,"Burkin Assay in Myoblasts, signal relative to DMSO",[2]; 0.5 uM,1.2055
same,"Burkin Assay in Myoblasts, signal relative to DMSO",[2]; 1 uM,1.101
same,"Burkin Assay in Myoblasts, signal relative to DMSO",[2]; 5 uM,1.3
same,"Burkin Assay in Myoblasts, signal relative to DMSO",[2]; 10 uM,0.9734
same,"Burkin Assay in Myoblasts, signal relative to DMSO",[2]; 20 uM,1.314
same,"Burkin Assay in Myoblasts, signal relative to DMSO",[2]; 40 uM,1.226
same,"CMV-LACZ in Myotubes, signal relative to DMSO",[3]; 0.5 uM,1.0257
same,"CMV-LACZ in Myotubes, signal relative to DMSO",[3]; 1 uM,0.9676
same,"CMV-LACZ in Myotubes, signal relative to DMSO",[3]; 5 uM,1.0094
same,"CMV-LACZ in Myotubes, signal relative to DMSO",[3]; 10 uM,0.8568
same,"CMV-LACZ in Myotubes, signal relative to DMSO",[3]; 20 uM,1.1537
same,"CMV-LACZ in Myotubes, signal relative to DMSO",[3]; 40 uM,0.9326
same,"Burkin Assay in Myotubes, α7 integrin LacZ reporter signal relative to DMSO",[4]; 0.5 uM,0.9647
same,"Burkin Assay in Myotubes, α7 integrin LacZ reporter signal relative to DMSO",[4]; 1 uM,0.9664
same,"Burkin Assay in Myotubes, α7 integrin LacZ reporter signal relative to DMSO",[4]; 5 uM,1.105
same,"Burkin Assay in Myotubes, α7 integrin LacZ reporter signal relative to DMSO",[4]; 10 uM,0.9741
same,"Burkin Assay in Myotubes, α7 integrin LacZ reporter signal relative to DMSO",[4]; 20 uM,0.935
same,"Burkin Assay in Myotubes, α7 integrin LacZ reporter signal relative to DMSO",[4]; 40 uM,0.9301
CCOc1ccccc1NC(=O)COC(=O)CNS(=O)(=O)c1ccc(C)cc1 [MLS000393567-01],CMV-LACZ in Myoblasts (β-galactosidase activity relative to DMSO),[1]; 0.5 uM,1.2117
same,CMV-LACZ in Myoblasts (β-galactosidase activity relative to DMSO),[1]; 1 uM,1.1373
same,CMV-LACZ in Myoblasts (β-galactosidase activity relative to DMSO),[1]; 5 uM,0.6593
same,CMV-LACZ in Myoblasts (β-galactosidase activity relative to DMSO),[1]; 10 uM,0.8148
same,CMV-LACZ in Myoblasts (β-galactosidase activity relative to DMSO),[1]; 20 uM,1.0175
same,CMV-LACZ in Myoblasts (β-galactosidase activity relative to DMSO),[1]; 40 uM,1.1319
same,"Burkin Assay in Myoblasts, signal relative to DMSO",[2]; 0.5 uM,1.032
same,"Burkin Assay in Myoblasts, signal relative to DMSO",[2]; 1 uM,1.051
same,"Burkin Assay in Myoblasts, signal relative to DMSO",[2]; 5 uM,0.9724
same,"Burkin Assay in Myoblasts, signal relative to DMSO",[2]; 10 uM,0.9325
same,"Burkin Assay in Myoblasts, signal relative to DMSO",[2]; 20 uM,0.8334
same,"Burkin Assay in Myoblasts, signal relative to DMSO",[2]; 40 uM,0.8705
same,"CMV-LACZ in Myotubes, signal relative to DMSO",[3]; 0.5 uM,1.0400
same,"CMV-LACZ in Myotubes, signal relative to DMSO",[3]; 1 uM,0.9524
same,"CMV-LACZ in Myotubes, signal relative to DMSO",[3]; 5 uM,0.9322
same,"CMV-LACZ in Myotubes, signal relative to DMSO",[3]; 10 uM,0.9858
same,"CMV-LACZ in Myotubes, signal relative to DMSO",[3]; 20 uM,1.0160
same,"CMV-LACZ in Myotubes, signal relative to DMSO",[3]; 40 uM,0.9100
same,"Burkin Assay in Myotubes, α7 integrin LacZ reporter signal relative to DMSO",[4]; 0.5 uM,0.8882
same,"Burkin Assay in Myotubes, α7 integrin LacZ reporter signal relative to DMSO",[4]; 1 uM,0.9953
same,"Burkin Assay in Myotubes, α7 integrin LacZ reporter signal relative to DMSO",[4]; 5 uM,0.9065
same,"Burkin Assay in Myotubes, α7 integrin LacZ reporter signal relative to DMSO",[4]; 10 uM,0.8857
same,"Burkin Assay in Myotubes, α7 integrin LacZ reporter signal relative to DMSO",[4]; 20 uM,0.8607
same,"Burkin Assay in Myotubes, α7 integrin LacZ reporter signal relative to DMSO",[4]; 40 uM,0.9237
